This passage reports IC50, EC50 and CC50 results from US11952365B2, “Anti-viral compounds” (Aligos Therapeutics, Inc., priority 2020, dated 2024).

One data set deals with HRV3C (Human rhinovirus 14, UniProt P03303). As to the kind of experiment: HRV3C protease assay (duplex, SAMDI-MS). It counts as biochemical, HRV. The note with it: 30 mins preincubation. Here is the method: Protease assays were performed in 384-well low volume polypropylene microtiter plates at ambient temperature. For the duplex assay, 3CLpro and HRV3C was added using a Multidrop Combi (Thermo Scientific; Waltham, MA) and preincubated for 30 mins with small molecules. The reactions were initiated by the addition of the two peptide substrates. The reactions were incubated for 30 mins and quenched by the addition of 0.5% formic acid (final) with subsequent neutralization using 1% sodium bicarbonate (final). Internal standard peptides were added in 20 mM Hepes pH 8.0 for quantitation of the protease products. For SAMDI-MS analysis, 2 μL of each reaction mixture was transferred using a 384-channel automated liquid handler to SAMDI biochip arrays functionalized with a neutravidin-presenting self-assembled monolayer. The SAMDI arrays were incubated for 1 h in a humidified chamber to allow the specific immobilization of the biotinylated peptide substrates, cleaved products and internal standards. The samples were purified by washing the SAMDI arrays with deionized ultrafiltered water and dried with compressed air. A matrix comprising alpha-cyano cinnamic acid in 80% acetonitrile:20% aqueous ammonium citrate was applied in an automated format by dispensing 50 nL to each spot in the array. SAMDI-MS was performed using reflector-positive mode on an AB Sciex TOF-TOF 5800 System (AB Sciex, Framingham, MA) with 400 shots/spot analyzed in a random raster sampling. For data analysis, area under the curves (peaks) (AUCs) for the product and internal standard were calculated using the TOF/TOF Series Explorer (AB Sciex), and the amount of product formed was calculated using the equation (AUC product/AUC internal standard). The amount of product generated was calculated using the ratio of product area under the curve (AUC) divided by the AUC of the internal standard. Negative controls were pre-quenched with 0.5% formic acid final. Assay robustness was determined by Z-Factor. The IC50s were determined by fitting the curves using a four-parameter equation in Graphpad Prism 8.

The test system of data set [1] is SARS-CoV-2-GHB-03021/2020. Nature of the data set: microbe, parasite or virus in culture. It is filed as cell-based. Conditions: Severe acute respiratory syndrome coronavirus 2, Vero C1008, 96 h; read-out: VeroE6 + CP (EC50).
Another data set addresses T1, human cathepsin L (Homo sapiens, UniProt P07711).
T1 construct: purchased R&D Systems
Nature of the data set: cathepsin L assay. It is filed as biochemical. Conditions: 10 pM human cathepsin L, Z-FR-AMC 2 μM, class symbols. Here is the method:
For the cathepsin L assay, 10 pM of human cathepsin L (R&D Systems; Minneapolis, MN) was preincubated for 30 mins with test compounds. Reactions were initiated by the addition of a peptide substrate Z-FR-AMC (final concentration 2 μM, Anaspec; Fremont, CA). Fluorescence was measured at 2-minute intervals for 30 mins using a 355/460 excitation/emission filter module on an Envision plate reader (Perkin Elmer; Waltham, MA). The IC50 values were calculated for each assay by fitting the curves using a four-parameter equation in GraphPad Prism.

The next data set addresses 3CLpro (Severe acute respiratory syndrome coronavirus 2, UniProt P0DTD1). Nature of the data set: SARS-CoV-2 3CLpro protease assay (duplex, SAMDI-MS). It is filed as biochemical. The note with it: 3CLpro, 30 mins preincubation, read-out: SARS-Cov-2 IC50. Details: For the duplex assay, 3CLpro and HRV3C was added.
Data set [2] deals with human beta-coronavirus OC43. Nature of the data set: microbe, parasite or virus in culture. It is filed as cell-based. The note with it: Betacoronavirus 1, OC43, HeLa, 144 h.
A further data set can be described thus: in vitro. The note with it: African green monkey, VeroE6 + CP (CC50), Vero E6-eGFP cells with CP-100356, absence of virus, MTS.
Data set [3] is described as follows: Cytotoxicity plates without OC43 virus (cell-titer-glo). Conditions: human; HeLa cells without OC43 virus, class symbols. It counts as cell-based, human. Here is the method:
The human beta-coronavirus OC43 was purchased from ATCC (Manassas, VA) and propagated using HCT-8 human colorectal epithelial cells (ATCC). HeLa human cervical epithelial cells (ATCC) were used as susceptible host cell lines and were cultured using EMEM media, supplemented with 10% fetal bovine serum (FBS), 1% (v/v) penicillin/streptomycin (P/S), 1% (v/v) HEPES and 1% (v/v) Cellgro Glutagro™ supplement (all Corning, Manassas, VA) at 37° C. For the OC43 antiviral assay, 1.5×10^4 HeLa cells per well were plated in 100 μL complete media in white 96-well plates with clear bottoms at 37° C. for up to 24 h to facilitate attachment and allow cells to recover from seeding stresses. Next day, the cell culture medium was removed. Serially diluted compounds in 100 μL assay media (EMEM, 2% FBS, 1% P/S, 1% Cellgro Glutagro™ supplement, 1% HEPES) were added to the cells and incubated for 4H at 37° C. in a humidified 5% CO2 incubator. 100 μL of OC43 virus stock was diluted to a concentration known to produce optimal cytopathic effect, inducing 80-90% reduction in cell viability. 96-well plates were incubated for 6 (HeLa) days at 33° C.; each plate contains uninfected control wells as well as virus-infected wells that were not treated with compound. Cytotoxicity plates without the addition of OC43 virus were carried out in parallel. At the end of the incubation period, 100 μL cell culture supernatant was replaced with 100 μL cell-titer-glo reagent (Promega, Madison, WI) and incubated for at least 10 min at rt prior to measuring luminescence. Luminescence was measured on a Perkin Elmer (Waltham, MA) Envision plate reader. Antiviral % inhibition was calculated as follows: [(Compound treated cells infected sample)−(no compound infected control)]/[(Uninfected control)−(no compound infected control)]*100; Using GraphPad (San Diego, CA) prism software version 8.3.1, the antiviral dose-response plot was generated as a sigmoidal fit, log(inhibitor) vs response-variable slope (four parameters) model and the EC50 was calculated which is the predicted compound concentration corresponding to a 50% inhibition of the viral cytopathic effect.

Setting [4] is: HRV3C, class symbols, read-out: HRV IC50.
Where [5] appears, read: OC43 in HeLa cells, 6 days at 33° C., class symbols, read-out: EC50.

Like-named read-outs stand apart in the source and are kept apart here.

On to `CC1(C)[C@@H]2[C@@H](C(=O)NC(C[C@@H]3CCNC3=O)C(=O)C(=O)NCc3ccccc3)N(C(=O)c3cc4ccccc4[nH]3)C[C@@H]21` (stereo partly drawn) [Compound 4, N-benzyl-3-[[(1R,2S,5S)-3-(1H-indole-2-carbonyl)-6,6-dimethyl-3-azabicyclo[3.1.0]hexan-2-yl]formamido]-2-oxo-4-[(3S)-2-oxopyrrolidin-3-yl]butanamide], for which the IC50 on HRV3C (setting [4]) was 2 to 20 µM; on human cathepsin L, 0.1 to 1 µM; at 3CLpro (class symbols) it was 0.2 to 2 µM. The EC50 in data set [1] and in data set [2] (setting [5]) was 1 to 10 µM in each case. Also, in the data set “in vitro” (numeric bounds), the CC50 is more than 100 µM. In addition, the CC50 at 6 days in data set [3] is more than 10 µM.
Consider `O=C(NCc1ccccc1)C(=O)C(C[C@@H]1CCNC1=O)NC(=O)[C@@H]1[C@H]2CCC[C@H]2CN1C(=O)c1cc2ccccc2[nH]1` (stereo partly drawn) [Compound 2, (1S,3aR,6aS)—N-(4-(benzylamino)-3,4-dioxo-1-((S)-2-oxopyrrolidin-3-yl)butan-2-yl)-2-(1H-indole-2-carbonyl)-octahydrocyclopenta[c]pyrrole-1-carboxamide], for which the IC50 at HRV3C (setting [4]) fell in the range of 2 to 20 µM; on human cathepsin L, 1 to 10 µM; on 3CLpro (class symbols), 0.2 to 2 µM. For the same compound, the values for the EC50 in data set [1] and in data set [2] (setting [5]) were 1 to 10 µM and 0.1 to 1 µM, respectively. In addition, the CC50 in the data set “in vitro” (class symbols) is more than 10 µM. In data set [3], this compound displayed a CC50 at 6 days of more than 10 µM.
With `COc1cccc2[nH]c(C(=O)N3C[C@@H]4CCC[C@@H]4[C@H]3C(=O)N[C@@H](C[C@@H]3CCNC3=O)C(=O)c3cnc[nH]3)cc12` [Compound 74, (1S,3aR,6aS)—N-[(2S)-1-(3H-imidazol-4-yl)-1-oxo-3-[(3S)-2-oxopyrrolidin-3-yl]propan-2-yl]-2-(4-methoxy-1H-indole-2-carbonyl)-hexahydro-1H-cyclopenta[c]pyrrole-1-carboxamide], the IC50 at HRV3C (HRV IC50, HRV3C, bound) was more than 10 µM; against human cathepsin L, not below 10 µM; on 3CLpro (bound), more than 10 µM. Moreover, the figures for the EC50 in data set [1] and in data set [2] were 10 to 100 µM and more than 10 µM, respectively. Also, in “in vitro” (class symbols), the CC50 was more than 10 µM. In data set [3], this compound registered a CC50 at 6 days of more than 10 µM.
Take `COc1cccc2[nH]c(C(=O)N3C[C@@H]4CCC[C@@H]4[C@H]3C(=O)N[C@@H](C[C@@H]3CCNC3=O)C(=O)C(=O)NCC(F)(F)F)cc12` [Compound 114]: the IC50 was 2 to 20 µM on HRV3C (setting [4]), not below 10 µM against human cathepsin L and 0.2 to 2 µM on 3CLpro (class symbols). Also, the EC50 was in the range of 10 to 100 µM in data set [1] and 1 to 10 µM in data set [2] (setting [5]). Moreover, the CC50 in “in vitro” (numeric bounds) is more than 50 µM. The compound further yielded a CC50 at 6 days in data set [3] of more than 10 µM.
In the case of `CC1(C)C[C@@H](C(=O)NC(C[C@@H]2CCNC2=O)C(=O)C(=O)NCc2ccccc2)N(C(=O)c2cc3ccccc3[nH]2)C1` (stereo partly drawn) [Compound 11], the IC50 on HRV3C (setting [4]) is 2 to 20 µM; against human cathepsin L, less than 0.1 µM; at 3CLpro (class symbols), 0.2 to 2 µM. Further, the EC50 lay within 10 to 100 µM in data set [1] and 1 to 10 µM in data set [2] (setting [5]). The CC50 in “in vitro” (numeric bounds) is more than 100 µM. The CC50 at 6 days in data set [3] is more than 10 µM.
For the compound `COc1cccc2[nH]c(C(=O)N3C[C@@H]4CCC[C@@H]4[C@H]3C(=O)N[C@H](C=O)C[C@@H]3CCNC3=O)cc12` [Compound 14A, (1S,3aR,6aS)-2-(4-methoxy-1H-indole-2-carbonyl)-N-[(2S)-1-oxo-3-[(3S)-2-oxopyrrolidin-3-yl]propan-2-yl]-hexahydro-1H-cyclopenta[c]pyrrole-1-carboxamide], the values for the IC50 at HRV3C (setting [4]), against human cathepsin L and at 3CLpro (class symbols) were 0.2 to 2 µM, not below 10 µM and 0.02 to 0.2 µM, respectively. In addition, the EC50 in data set [1] lay in the range of 10 to 100 µM; in data set [2] (setting [5]) it was 1 to 10 µM. The CC50 in the data set “in vitro” (numeric bounds) is more than 100 µM. The CC50 at 6 days in data set [3] was more than 10 µM.
With `COc1cccc2[nH]c(C(=O)N3C[C@@H]4CCC[C@@H]4[C@H]3C(=O)N[C@@H](C[C@@H]3CCNC3=O)C(=O)c3nc4ccccc4[nH]3)cc12` [Compound 92, (1S,3aR,6aS)—N-[(2S)-1-(1H-1,3-benzodiazol-2-yl)-1-oxo-3-[(3S)-2-oxopyrrolidin-3-yl]propan-2-yl]-2-(4-methoxy-1H-indole-2-carbonyl)-hexahydro-1H-cyclopenta[c]pyrrole-1-carboxamide], the IC50 was more than 10 µM on HRV3C (HRV IC50, HRV3C, bound); not below 10 µM on human cathepsin L; 0.2 to 2 µM at 3CLpro (class symbols). For the same compound, the EC50 in data set [1] is 10 to 100 µM; in data set [2] (OC43 in HeLa cells, 6 days at 33° C., bound, read-out: EC50) it was more than 10 µM. For the same compound, the half-maximal cytotoxic concentration (CC50) in the data set “in vitro” (numeric bounds) was more than 100 µM. Also, the CC50 at 6 days in data set [3] is more than 10 µM.
`O=C(NCc1ccccc1)C(=O)C(C[C@@H]1CCNC1=O)NC(=O)[C@@H]1[C@H]2CC[C@H](C2)N1C(=O)c1cc2ccccc2[nH]1` (stereo partly drawn) [Compound 8]: the IC50 at HRV3C (setting [4]) was in the range of 2 to 20 µM; against human cathepsin L, 0.1 to 1 µM; at 3CLpro (class symbols), 0.2 to 2 µM. In addition, the EC50 in data set [1] is 10 to 100 µM; in data set [2] (setting [5]), 1 to 10 µM. In addition, the CC50 in “in vitro” (numeric bounds) was more than 100 µM. Also, the CC50 at 6 days in data set [3] is more than 10 µM.
Turning to `COc1cccc2[nH]c(C(=O)N3C[C@@H]4CCC[C@@H]4[C@H]3C(=O)N[C@@H](C[C@@H]3CCNC3=O)C(=O)c3nc4ccccc4o3)cc12` [Compound 75, (1S,3aR,6aS)—N-[(2S)-1-(1,3-benzoxazol-2-yl)-1-oxo-3-[(3S)-2-oxopyrrolidin-3-yl]propan-2-yl]-2-(4-methoxy-1H-indole-2-carbonyl)-hexahydro-1H-cyclopenta[c]pyrrole-1-carboxamide], the IC50 on HRV3C (HRV IC50, HRV3C, bound) was more than 10 µM; at human cathepsin L, not below 10 µM; on 3CLpro (class symbols), 0.02 to 0.2 µM. Further, the EC50 in data set [1] was in the range of 1 to 10 µM; in data set [2] (setting [5]) it was 0.1 to 1 µM. For the same compound, the CC50 in “in vitro” (numeric bounds) is more than 100 µM. In data set [3], the CC50 at 6 days was more than 10 µM.
